Patent publication US10183936B2, “Hepatitis B core protein allosteric modulators” (priority 2014, dated 2019)

Experiments:
[1] = test system: HBV viral production in AD38 cells; assay: Viral load production in AD38 cells by quantitative PCR of the HBV core sequence in supernatant; type: cell-based; details: Hepatitis B virus, 144 h; 10 μM compound, 6 days at 37° C., viral load in supernatant compared against DMSO control wells; read-out: AD38 Viral Load (CpAM/DMSO %) at 10 μM
How it was run: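 Read-out is TaqMan qPCR of the HBV core region in supernatant, quantitated against standards and referenced to DMSO controls (≥3 per plate). Cells: AD38 at 50,000/well, exposed to compound (added as 10× stock in 10% DMSO) for 6 days at 37° C.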

AD38 cells = assay: Viability of AD38 cells (Promega CellTiter-Glo) at the end of compound treatment; type: cell-based; details: 10 μM compound, 6 days, luminescence normalized against DMSO control wells (controls being 100%)
How it was run: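 Luminescent CellTiter-Glo read-out, taken after supernatant was swapped for tetracycline-free 2% FBS medium with 1% DMSO, gave percent viability relative to DMSO controls set at 100%. Cells were plated at 50,000/well and exposed to compound, added as a 10× stock in 10% DMSO, for 6 days at 37° C.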

| Structure (SMILES) | activity at 10 µM [1] [%] | AD38 Viability Normalized Result (CPAM/DMSO %) at 10 μM (AD38 cells) [%] |
| --- | --- | --- |
| Cc1nnc(CCNC(=O)c2ccc3c(c2)NC(=O)c2ccccc2S3)o1 [Compound 1603] | 6 | 91 |
| O=C1Nc2c(cc(F)c(C(=O)NCCc3cncnc3)c2F)Sc2ccccc21 [Compound 1562] | 25 | 89 |
| O=C(NCCCCc1ccccc1)c1ccc2c(c1)NC(=O)c1ccccc1S2 [Compound 1109] | 6 | 99 |
| CN1c2ccc(C(=O)NCCc3ccc(-c4ccccc4)cc3)cc2NC(=O)c2ccccc21 [Compound 1521] | 1 | 22 |
| O=C(NCc1cccnc1)c1cc2c(cc1F)Sc1ccccc1C(=O)N2 [Compound 1396] | 63 | 95 |
| Cc1cccc(CNC(=O)c2ccc3c(c2)NC(=O)c2ccccc2S3(=O)=O)c1 [Compound 1621] | 1 | 117 |
| O=C(NCCc1ccc(-c2cncnc2)cc1)c1ccc2c(c1)NC(=O)c1cc(F)ccc1S2 [Compound 1320] | 43 | 93 |
| CC(C)(C)c1ccc([C@@H](CO)NC(=O)c2ccc3c(c2)NC(=O)c2cc(F)ccc2S3)cc1 [Compound 1313] | 17 | 108 |
| O=C(NC[C@@H](CO)c1ccccc1)c1ccc2c(c1)NC(=O)c1ccccc1S2 [Compound 1259] | 11 | 84 |
| O=C(NCCc1cncnc1)c1ccc2c(c1)NC(=O)c1cccc(F)c1S2 [Compound 1409] | 4 | 83 |
| O=C(NCc1cnccn1)c1ccc2c(c1)NC(=O)c1ccccc1S2 [Compound 1586] | 23 | 112 |
| CN1C(=O)c2ccccc2Sc2ccc(C(=O)NCc3cncs3)cc21 [Compound 1573] | 46 | 126 |
| O=C(NCCc1cnc(-c2ccccc2)nc1)c1ccc2c(c1)NC(=O)c1cc(F)ccc1S2 [Compound 1343] | 8 | 91 |
| O=C(Nc1ccncc1)c1ccc2c(c1)NC(=O)c1cccc(F)c1S2 [Compound 1393] | 41 | 87 |
| O=C(Nc1ccc2ncoc2c1)c1ccc2c(c1)NC(=O)c1cc(F)ccc1S2 [Compound 1331] | 43 | 88 |
| Cc1ccc(CNC(=O)c2ccc3c(c2)NC(=O)c2ccccc2S3)cc1 [Compound 1164] | 27 | 103 |
| O=C(Nc1ccccc1F)c1ccc2c(c1)NC(=O)c1cc(F)ccc1S2 [Compound 1322] | 28 | 94 |
| O=C(NCCOc1ccccc1)c1ccc2c(c1)NC(=O)c1ccccc1S2(=O)=O [Compound 1625] | 2 | 111 |
| O=C(NCc1cncs1)c1ccc2c(c1)NC(=O)c1ccccc1S2 [Compound 1245] | 1 | 101 |
| CN(C)CCCOc1ccc(CCNC(=O)c2ccc3c(c2)NC(=O)c2ccccc2S3)cc1.Cl [Compound 1155] | 18 | 103 |
| O=C(NCCc1ccccn1)c1ccc2c(c1)NC(=O)c1ccccc1[S+]2[O-] (stereo not shown) [Compound 1374] | 1 | 98 |

| Structure (SMILES) | activity at 10 µM [1] [%] | AD38 Viability Normalized Result (CPAM/DMSO %) at 10 μM (AD38 cells) [%] |
| --- | --- | --- |
| CNc1ccccc1CNC(=O)c1ccc2c(c1)NC(=O)c1ccccc1S2 [Compound 1239, N-(2-(methylamino)benzyl)-11-oxo-10, 11-dihydrodibenzo [b,f] [1,4] thiazepine-8-carboxamide] | 33 | 106 |
| O=C(NCCc1cncnc1)c1ccc2c(c1)NC(=O)c1ccccc1N2Cc1ccccc1 [Compound 1464] | 49 | 98 |
| CN(C)S(=O)(=O)c1ccc(CCNC(=O)c2ccc3c(c2)NC(=O)c2c(F)cccc2S3)cc1 [Compound 1477] | 67 | 16 |
| O=C(NCc1ccccc1)c1ccc2c(c1)NC(=O)c1ccccc1S2(=O)=O [Compound 1620] | 3 | 111 |
| O=C(NCc1cccc(F)c1)c1ccc2c(c1)NC(=O)c1ccccc1S2(=O)=O [Compound 1622] | 0 | 120 |
| O=C(NCc1cncnc1)c1cc2c(cc1F)Sc1ccccc1C(=O)N2 [Compound 1428] | 28 | 93 |
| O=C(NCc1cccc(OC(F)(F)F)c1)c1ccc2c(c1)NC(=O)c1ccccc1S2(=O)=O [Compound 1624] | 1 | 136 |
| NC(=O)c1ccc2c(c1)NC(=O)c1ccccc1S2 [Compound 1525] | 78 | 85 |
| O=C(NCCc1cncs1)c1ccc2c(c1)NC(=O)c1cc(F)ccc1S2 [Compound 1418] | 12 | 73 |
| O=C(Nc1nc(-c2ccccc2)co1)c1ccc2c(c1)NC(=O)c1cc(F)ccc1S2 [Compound 1454] | 27 | 95 |
| O=C(NCc1cncs1)c1ccc2c(c1)NC(=O)c1ccccc1[S+]2[O-] (stereo not shown) [Compound 1388] | 5 | 71 |
| O=C(NCc1ccccc1F)c1ccc2c(c1)NC(=O)c1ccccc1S2 [Compound 1167] | 57 | 124 |
| NC(=O)c1ccc2c(c1)Sc1ccc(C(=O)NCCc3ccccc3)cc1NC2=O [Compound 1279] | 55 | 84 |
| O=C1Nc2cc(S(=O)(=O)NCc3cncs3)ccc2Sc2ccccc21 [Compound 1556] | 67 | 86 |
| CC(=O)Nc1ccccc1CNC(=O)c1ccc2c(c1)NC(=O)c1ccccc1S2 [Compound 1253] | 15 | 103 |
| O=C(NCCc1cnco1)c1ccc2c(c1)NC(=O)c1ccccc1N2Cc1ccccc1 [Compound 1559] | 68 | 92 |
| O=C(NCc1nnc[nH]1)c1ccc2c(c1)NC(=O)c1ccccc1S2 [Compound 1599] | 72 | 101 |
| O=C(NCCCCc1ccncc1)c1ccc2c(c1)NC(=O)c1ccccc1S2 [Compound 1149] | 5 | 118 |
| O=C(NCc1cncnc1)c1ccc2c(c1)NC(=O)c1ccccc1[S+]2[O-] (stereo not shown) [Compound 1373] | 10 | 100 |
| Cc1c(C(=O)NCc2cnco2)ccc2c1NC(=O)c1ccccc1S2 [Compound 1514] | 13 | 84 |
